The text below walks through data of US20200330655A1, “DELIVERY OF NITRIC OXIDE-RELEASING PHOSPHOLIPIDS, LIPOSOMES, AND HIGH DENSITY LIPOPROTEIN-LIKE NANOPARTICLES (HDL NPS) BY DRUG ELUTING STENTS AND INTRA-ARTERIAL INJECTION” (Northwestern University, priority 2016, published 2020).

Data set [1] in a line: SNO DPPTE exposure to light and/or room temperature. The format is physicochemical. The conditions noted are these: FIG. 17.
Data set [2] concerns porcine coronary injury model. Particulars: drug eluting stent loaded with the NO donor; cited from earlier work.

Take “S-nitrosylated 1,2-dipalmitoyl-sn-glycero-3-phosphothioethanol [SNO DPPTE]”: the “stability on exposure to light and/or room temperature” value in data set [1] was “forms disulfide bonds”.
In the case of nitroprus side, the “neointimal hyperplasia and restenosis” value in data set [2] was “did not reduce”.
